These are literature values, as cited in patent US9795686B2, “Biomaterials comprising hyaluronic acid binding peptides and bifunctional biopolymer molecules for hyaluronic acid retention and tissue engineering applications” (THE JOHNS HOPKINS UNIVERSITY, priority 2012, dated 2017).

Usually pKd stands for −log10 of the Kd, conventionally taken in molar units.

The conditions of the data set: previously observed; read-out: Kd, affinity of HABPep for HA.

pKd: −log10 of the molar value.

As for GAHWQFNALTVR [HABPep], the pKd is 5.78.
